Square brackets hold non-standard residues; d marks the D form. Ends that are not written are not given here. pY = N[C@@H](Cc1ccc(OP(=O)(O)O)cc1)C(=O)O
Columns and labels:
CD8^+ T cells (PBMCs) = experiment: Intracellular cytokine staining (ICS) of PBMCs after 7 days of stimulation with MHC-I-pP (healthy donors, HH patients); format: cell-based, human
Procedure: From this, CD8^+ T cell responses against newly identified MHC class I-associated phosphopeptides in healthy individuals and patients with chronic liver disease were investigated. Twenty-one of the newly identified HCC-associated HLA-A*0201-restricted phosphopeptides were selected (see Table 17) for further immunological testing in HLA-A*0201 positive patients. MHC-I-pP-specific cytotoxic CD8^+ T cell responses (ppCTL) were assessed using intracellular cytokine staining (ICS) and several cytokines and surface markers were assessed in parallel. After 7 days of stimulation with the respective MHC-I-pP and no other cytokines, CD3- and CD8-expressing T cells were stained for at least two different cytokines (IFN-γ, TNF-α) and when required CD107a expression as a marker for their cytotoxic potential.
First, peripheral blood mononuclear cells (PBMCs) from healthy donors and patients with hereditary hemochromatosis (HH) were analyzed. HH is a chronic liver disease characterized by excessive intestinal absorption of dietary iron resulting in a pathological deposition of iron in the liver. PBMCs or lymphocytes from liver tissue were extracted and specifically stimulated with (phospho-) peptides for 7 days before intracellular cytokine staining (ICS). Doublets and dead cells, using a fixable viability dye, were excluded. Lymphocytes were gated on CD3^+ and CD8^+ double positive cells and were analysed for expression of IFNγ, TNFα-, and CD107a.

[1] = system: unexpanded lymphocyte cultures (CD8^+ T cells); experiment: ICS for MHC-I-pP reactivity of lymphocyte cultures without expansion (Table 23, No Expansion); details: HH6
[2] = system: expanded lymphocyte cultures from deceased donor livers, cirrhotic livers and HCC; experiment: ICS for MHC-I-pP reactivity of liver-derived lymphocyte cultures after phosphopeptide-specific expansion; format: cell-based, human
[3] = system: expanded TIL / IHL cultures; experiment: ICS for MHC-I-pP reactivity of liver-derived lymphocyte cultures after unspecific rapid expansion protocol (REP); format: cell-based, human

yLQSRYYRA: HIPK3 phosphopeptide, HLA-A*0201 ([pY]LQSRYYRA; listed as Homo sapiens)
Reactive CD8^+ T cell population, HH2 (CD8^+ T cells (PBMCs); HH patient HH2): 0 (<0.25% reactive CD8^-+ T cells) | Reactive CD8^+ T cell population, HH3 (CD8^+ T cells (PBMCs); HH patient HH3): 0 (<0.25% reactive CD8^-+ T cells) | Reactive CD8^+ T cell population, HH6 (CD8^+ T cells (PBMCs); HH patient HH6): 1 (0.25-2.5% reactive CD8^-+ T cells) | Reactive CD8^+ T cell population, HH8 (CD8^+ T cells (PBMCs); HH patient HH8): 0 (<0.25% reactive CD8^-+ T cells) | Reactive CD8^+ T cell population, HD1 (CD8^+ T cells (PBMCs); Healthy donor HD1): 0 (<0.25% reactive CD8^-+ T cells) | Reactive CD8^+ T cell population, HD4 (CD8^+ T cells (PBMCs); Healthy donor HD4): 0 (<0.25% reactive CD8^-+ T cells) | Reactive CD8^+ T cell population, HD5 (CD8^+ T cells (PBMCs); Healthy donor HD5): 0 (<0.25% reactive CD8^-+ T cells) | Reactive CD8^+ T cells, No Expansion, HH6 [1]: 1 (0.25-2.5% reactive CD8^-+ T cells) | Reactive CD8^+ T cells, pP-specific Expansion, Do2 ([2]; pP-specific Expansion, Do2): 2 (2.5-5.0% reactive CD8^-+ T cells) | Reactive CD8^+ T cells, pP-specific Expansion, Do4 ([2]; pP-specific Expansion, Do4): 0 (<0.25% reactive CD8^-+ T cells) | Reactive CD8^+ T cells, pP-specific Expansion, HH6 ([2]; pP-specific Expansion, HH6): 0 (<0.25% reactive CD8^-+ T cells) | ppCTL response, Deceased Donor Liver Do 2 ([2]; pP-specifically expanded culture, Deceased Donor Liver Do 2): 2 (2.5-5.0% reactive CD8-+ T cells) | ppCTL response, Deceased Donor Liver Do 3 ([2]; pP-specifically expanded culture, Deceased Donor Liver Do 3): 0 (<0.25% reactive CD8-+ T cells) | ppCTL response, Deceased Donor Liver Do 4 ([2]; pP-specifically expanded culture, Deceased Donor Liver Do 4): 0 (<0.25% reactive CD8-+ T cells) | ppCTL response, Deceased Donor Liver Do 6 ([2]; pP-specifically expanded culture, Deceased Donor Liver Do 6): 0 (<0.25% reactive CD8-+ T cells) | ppCTL response, End-stage Liver Cirrhosis IHL 11 ([2]; pP-specifically expanded culture, End-stage Liver Cirrhosis IHL 11): 0 (<0.25% reactive CD8-+ T cells) | ppCTL response, End-stage Liver Cirrhosis IHL 12 ([2]; pP-specifically expanded culture, End-stage Liver Cirrhosis IHL 12): 0 (<0.25% reactive CD8-+ T cells) | ppCTL response, End-stage Liver Cirrhosis IHL 13 ([2]; pP-specifically expanded culture, End-stage Liver Cirrhosis IHL 13): 0 (<0.25% reactive CD8-+ T cells) | ppCTL response, End-stage Liver Cirrhosis IHL 15 ([2]; pP-specifically expanded culture, End-stage Liver Cirrhosis IHL 15): 0 (<0.25% reactive CD8-+ T cells) | ppCTL response, HCC Distal HCC 1 ([2]; pP-specifically expanded culture, HCC 1 Distal): 0 (<0.25% reactive CD8-+ T cells) | ppCTL response, HCC Tumor HCC 1 ([2]; pP-specifically expanded culture, HCC 1 Tumor): 0 (<0.25% reactive CD8-+ T cells) | ppCTL response, HCC Distal HCC 4 ([2]; pP-specifically expanded culture, HCC 4 Distal): 0 (<0.25% reactive CD8-+ T cells) | ppCTL response, HCC Distal HCC 9 ([2]; pP-specifically expanded culture, HCC 9 Distal): 0 (<0.25% reactive CD8-+ T cells) | ppCTL response, HCC Tumor HCC 9 ([2]; pP-specifically expanded culture, HCC 9 Tumor): 1 (0.25-2.5% reactive CD8-+ T cells) | ppCTL response, HCC Distal HCC 12 ([2]; pP-specifically expanded culture, HCC 12 Distal): 0 (<0.25% reactive CD8-+ T cells) | Reactive CD8^+ T cells, Non-specific Expansion, Do2 ([3]; Do2): 0 (<0.25% reactive CD8^-+ T cells) | Reactive CD8^+ T cells, Non-specific Expansion, Do4 ([3]; Do4): 0 (<0.25% reactive CD8^-+ T cells) | Reactive CD8^+ T cells, Non-specific Expansion, HH6 ([3]; HH6): 0 (<0.25% reactive CD8^-+ T cells)

Reference: US20190374627A1, “TARGET PEPTIDES FOR CANCER THERAPY AND DIAGNOSTICS” (priority 2016, published 2019)
